# Measured values: patent US20200270647A1, “TRANSGENIC STRAIN FOR PRODUCING SUCCINATE AND METHOD FOR PRODUCING SUCCINATE” (NATIONAL CHIAO TUNG UNIVERSITY, priority 2019, published 2020)
# System: PCC7942 cyanobacterium strain
# Description: The bacterium amount (cell amount) was monitored by measuring the optical density (OD) of the culture medium at a wavelength of 730 nm using the Biotek epoch 2 microplate spectrophotometer. The OD730 is calculated based on a recalibration of an optical path length 1 cm.
Compound,"growth inhibition effect on the cyanobacterium strain (wild-type PCC7942 in BG-11, different concentrations, cell density observed for three days, versus sodium chloride with same sodium concentration)",toxicity to the growth or persistence of the cyanobacterium strain
O=C([O-])CCC(=O)[O-].[Na+].[Na+] [disodium succinate],almost equivalent to the growth inhibition effect of sodium chloride,–
O=C(O)CCC(=O)O [succinate],–,not toxic
